The test system of test [1] is r(G4C2)66-No ATG-GFP mRNA. Description: RNA levels in transfected HEK293T cells by RT-qPCR. The format is cell-based, human. Here is the method: Measuring RNA Levels in HEK Cells. HEK293T cells were seeded at 2×10^6 in 100 mm dish and incubated at 37° C. overnight. Cells were transfected with 2.5 μg of the (G4C2)66-No ATG-GFP plasmid with Lipofectamine 3000 (Life Technologies) per the manufacturer's protocols. After 5 h, the cells were collected and split into 24-well plate with 5×10^4 cells per well. After 2 h, the compounds were added and incubated for another 24 h.
Total RNA was extracted using a Quick-RNA Miniprep Kit (Zymo Research) per the manufacturer's protocol. Approximately 1 μg of total RNA, as determined by Nanodrop, was used for reverse transcription using qScript Kit (Quantbio) per the manufacturer's protocol. RT-qPCR was performed on a 7900HT Fast Real Time PCR System (Applied Biosystem) using Power SYBR Green Master Mix (Applied Biosystems). Expression levels of mRNAs were normalized to β-actin.
Rnase L Knockdown. HEK293T cells were seeded in growth medium in a 100 mm dish and incubated at 37° C. until ˜80% confluent. Cells were transfected with 2.5 µg (G4C2)66-No-ATG-GFP for 5 h with Lipofectamine 3000 (Life Technologies) per the manufacturer's recommended protocol. Following transfection, the cells were plated in 6-well plates and incubated at 37° C. until ˜80% confluent. Compounds were added in growth medium and incubated for 24 h. Following compound treatment, the siRNA of interest (Table 3) were transfected with RNAiMax (Life Technologies) at a final concentration of 50 nM for 24 h per the manufacturer's recommended protocol. Total RNA was extracted using a Quick-RNA Miniprep Kit (Zymo Research) per the manufacturer's protocol. Intron 1 abundance was assessed by RT-qPCR as described above.
In general terms: Quantitative PCR measures a nucleic acid by following its amplification.

The subject of test [2] is r(G4C2)exp-containing nuclear foci. The experiment in a line: RNA foci imaging (RNA-FISH) in patient-derived LCLs. As to conditions: 100 nM. The format is cell-based, human. Here is the method: Imaging RNA Foci in LCLs. RNA foci containing r(G4C2)^exp were imaged using RNA fluorescence in situ hybridization (FISH) as previously described (13). Briefly, ALS patient-derived LCLs were treated with compound or ASO as described in “Measuring poly(GP) Levels by Electrochemiluminescence”. The cells were harvested, pelleted, and washed with 1×PBS. LCLs were then fixed in 2% paraformaldehyde in 1×PBS for 15 min at room temperature and then washed three times with 1×PBS. The fixed cells were then centrifuged, washed twice with 1×PBS, and seeded into poly lysine coated, glass bottom 96-well plates (˜5×10^5 cells/well). To ensure the cells adhered to the plate, they were incubated at 37° C. for >2 h. The cells were then incubated with 70% ethanol overnight at 37° C. The next day, LCLs were washed with 1×PBS for 15 min at room temperature, and then with 1×PBS containing 0.1% (v/v) Triton X-100 for 5 min at room temperature. […] Quantification was performed in triplicate with ˜200 nuclei counted per sample. Average number of foci per nuclei was assessed for each sample and reported. Statistical analysis was measured using an unpaired t-test with Welch's correction.

The target in test [3] is T1, ternary complex r(G4C2)66, RNase L and 7 (Homo sapiens, UniProt Q05823).
T1 construct: for degradation by recruiting the endogenous nuclease Rnase L; endogenous in cells; host or cells: HEK293T cells transfected with the (G4C2)66-No ATG-GFP plasmid (RNA only)
T1 sequence (Q05823 whole entry, one chain of several): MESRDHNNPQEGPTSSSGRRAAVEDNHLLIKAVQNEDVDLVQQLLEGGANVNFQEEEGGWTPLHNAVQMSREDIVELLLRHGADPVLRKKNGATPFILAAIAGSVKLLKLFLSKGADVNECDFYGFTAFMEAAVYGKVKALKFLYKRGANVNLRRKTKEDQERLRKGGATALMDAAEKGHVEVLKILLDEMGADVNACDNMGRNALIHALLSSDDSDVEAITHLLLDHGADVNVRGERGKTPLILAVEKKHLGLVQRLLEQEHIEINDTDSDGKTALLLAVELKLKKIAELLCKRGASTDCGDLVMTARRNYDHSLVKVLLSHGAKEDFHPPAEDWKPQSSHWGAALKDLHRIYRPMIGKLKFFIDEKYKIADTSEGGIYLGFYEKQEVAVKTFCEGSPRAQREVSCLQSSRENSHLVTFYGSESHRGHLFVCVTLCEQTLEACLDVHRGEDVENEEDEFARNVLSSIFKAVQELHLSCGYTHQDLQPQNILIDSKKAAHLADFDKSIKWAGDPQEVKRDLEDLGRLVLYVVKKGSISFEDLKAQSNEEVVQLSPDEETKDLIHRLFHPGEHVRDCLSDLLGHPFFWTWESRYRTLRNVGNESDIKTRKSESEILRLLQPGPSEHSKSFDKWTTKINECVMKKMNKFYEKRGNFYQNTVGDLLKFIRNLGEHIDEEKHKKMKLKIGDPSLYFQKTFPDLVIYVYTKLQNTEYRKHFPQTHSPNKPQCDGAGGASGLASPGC
The experiment in a line: RNase L RNA immunoprecipitation in HEK293T cells. The format is cell-based. As to conditions: 500 nM, compared to vehicle. Here is the method: RNA Immunoprecipitation. HEK293T cells were transfected with (G4C2)66-No ATG-GFP plasmid as described above, split into in 6-well plates, grown to ˜70% confluency, and treated with 500 nM 7 diluted in growth media for 24 h. The cell was washed with 1×PBS, removed from the plate with Accutase (Innovative Cell Technologies, Inc.), and then washed with 1×PBS. Cells were then lysed in 100 μL of M-PER buffer supplemented with 80 U RNaseOUT Recombinant Ribonuclease Inhibitor (Invitrogen) and 1× Protease Inhibitor Cocktail III for Mammalian Cells (Research Products International Corp.) per manufacturer's recommendations. The protein samples were tumbled overnight at 4° C. with Dynabeads Protein A (Life Technologies) that were bound to either β-actin mouse primary antibody (Cell Signaling Technologies; 3700S) or Rnase L mouse primary antibody (Santa Cruz Biotechnology; sc-74405). After antibody incubation, the beads were washed three times with 1×PBS supplemented with 0.02% Tween-20 and total RNA was extracted from beads using a miRNeasy Mini Kit (Qiagen) according to manufacturer's instructions.
Relative RNA expression levels before and after pull-down were determined by the ΔΔCt method and normalized to β-actin as a housekeeping gene.

Regarding `Cc1c2ccncc2c(C)c2c1[nH]c1ccc(OCCOCCOCCNCCOCCOCCOc3ccc4[nH]c5c(C)c6ccncc6c(C)c5c4c3)cc12` [Compound 3], the “r(G4C2)66 levels” value in test [1] (HEK293T) was “without affecting”. For the same molecule, the “reduction of number of r(G4C2)exp-containing nuclear foci” value in test [2] is reported as around 60%.

For the molecule `CCOC(=O)C1=C(Nc2ccccc2)S/C(=C\c2ccc(OCCOCCOCCOCCNC(=O)CCC(=O)N(CCOCCOCCOc3ccc4[nH]c5c(C)c6ccncc6c(C)c5c4c3)CCOCCOCCOc3ccc4[nH]c5c(C)c6ccncc6c(C)c5c4c3)c(O)c2)C1=O` [Compound 7], the “reduction of r(G4C2)exp-containing mRNA” value in test [1] (500 nM compound) amounted to 46±2%. In addition, the “ability to reduce r(G4C2)exp levels upon knock down of Rnase L by siRNA” value in test [1] (RNase L siRNA versus control siRNA) is “ablated”. The “enrichment of r(G4C2)exp-containing mRNA in anti-Rnase L immunoprecipitated fractions” value in test [3] was around 2 fold.

The values above are taken from US20230381170A1, “METHOD FOR TREATING ALS/FTD THROUGH DEGRADATION OF RNA REPEAT EXPANSION” (University of Florida Research Foundation, Incorporated, priority 2020, published 2023).
